This experiment deals with ROS (Homo sapiens, UniProt P08922). The experiment in a line: In vitro ROS enzymatic reaction assay (HTRF, Cisbio). Type of experiment: biochemical. Further details: ROS or EGFR enzyme, 0.008 ng/ul. The settings on record: for inhibition at 10 µM / Kinase Inhib. 10 uM (%) / Kinase Inhib. 5 uM (%) / inhibition at 5 µM: ROS kinase; for inhibition at 10 µM / Kinase Inhib. 10 uM (%): compound at 10 uM; for inhibition at 10 µM: read-out: Kinase Inhib. 10 uM (%); for Kinase Inhib. 5 uM (%) / inhibition at 5 µM: compound at 5 uM; for inhibition at 5 µM: read-out: Kinase Inhib. 5 uM (%). The protocol:
The ROS enzymatic reactions were carried out with a high throughput screening platform for phosphor-detection of kinase activity. This platform based on homogeneous time resolved fluorescence (HTRF) technology from Cisbio Bioassays, Inc. (Cisbio). […] The reaction was allowed to proceed for 30 minutes at room temperature. An equal volume of detection buffer was then added to the reaction mix.
Background: TR-FRET usually uses a lanthanide donor and a delayed reading to cut background.

Chain of ROS (P08922 28-2347): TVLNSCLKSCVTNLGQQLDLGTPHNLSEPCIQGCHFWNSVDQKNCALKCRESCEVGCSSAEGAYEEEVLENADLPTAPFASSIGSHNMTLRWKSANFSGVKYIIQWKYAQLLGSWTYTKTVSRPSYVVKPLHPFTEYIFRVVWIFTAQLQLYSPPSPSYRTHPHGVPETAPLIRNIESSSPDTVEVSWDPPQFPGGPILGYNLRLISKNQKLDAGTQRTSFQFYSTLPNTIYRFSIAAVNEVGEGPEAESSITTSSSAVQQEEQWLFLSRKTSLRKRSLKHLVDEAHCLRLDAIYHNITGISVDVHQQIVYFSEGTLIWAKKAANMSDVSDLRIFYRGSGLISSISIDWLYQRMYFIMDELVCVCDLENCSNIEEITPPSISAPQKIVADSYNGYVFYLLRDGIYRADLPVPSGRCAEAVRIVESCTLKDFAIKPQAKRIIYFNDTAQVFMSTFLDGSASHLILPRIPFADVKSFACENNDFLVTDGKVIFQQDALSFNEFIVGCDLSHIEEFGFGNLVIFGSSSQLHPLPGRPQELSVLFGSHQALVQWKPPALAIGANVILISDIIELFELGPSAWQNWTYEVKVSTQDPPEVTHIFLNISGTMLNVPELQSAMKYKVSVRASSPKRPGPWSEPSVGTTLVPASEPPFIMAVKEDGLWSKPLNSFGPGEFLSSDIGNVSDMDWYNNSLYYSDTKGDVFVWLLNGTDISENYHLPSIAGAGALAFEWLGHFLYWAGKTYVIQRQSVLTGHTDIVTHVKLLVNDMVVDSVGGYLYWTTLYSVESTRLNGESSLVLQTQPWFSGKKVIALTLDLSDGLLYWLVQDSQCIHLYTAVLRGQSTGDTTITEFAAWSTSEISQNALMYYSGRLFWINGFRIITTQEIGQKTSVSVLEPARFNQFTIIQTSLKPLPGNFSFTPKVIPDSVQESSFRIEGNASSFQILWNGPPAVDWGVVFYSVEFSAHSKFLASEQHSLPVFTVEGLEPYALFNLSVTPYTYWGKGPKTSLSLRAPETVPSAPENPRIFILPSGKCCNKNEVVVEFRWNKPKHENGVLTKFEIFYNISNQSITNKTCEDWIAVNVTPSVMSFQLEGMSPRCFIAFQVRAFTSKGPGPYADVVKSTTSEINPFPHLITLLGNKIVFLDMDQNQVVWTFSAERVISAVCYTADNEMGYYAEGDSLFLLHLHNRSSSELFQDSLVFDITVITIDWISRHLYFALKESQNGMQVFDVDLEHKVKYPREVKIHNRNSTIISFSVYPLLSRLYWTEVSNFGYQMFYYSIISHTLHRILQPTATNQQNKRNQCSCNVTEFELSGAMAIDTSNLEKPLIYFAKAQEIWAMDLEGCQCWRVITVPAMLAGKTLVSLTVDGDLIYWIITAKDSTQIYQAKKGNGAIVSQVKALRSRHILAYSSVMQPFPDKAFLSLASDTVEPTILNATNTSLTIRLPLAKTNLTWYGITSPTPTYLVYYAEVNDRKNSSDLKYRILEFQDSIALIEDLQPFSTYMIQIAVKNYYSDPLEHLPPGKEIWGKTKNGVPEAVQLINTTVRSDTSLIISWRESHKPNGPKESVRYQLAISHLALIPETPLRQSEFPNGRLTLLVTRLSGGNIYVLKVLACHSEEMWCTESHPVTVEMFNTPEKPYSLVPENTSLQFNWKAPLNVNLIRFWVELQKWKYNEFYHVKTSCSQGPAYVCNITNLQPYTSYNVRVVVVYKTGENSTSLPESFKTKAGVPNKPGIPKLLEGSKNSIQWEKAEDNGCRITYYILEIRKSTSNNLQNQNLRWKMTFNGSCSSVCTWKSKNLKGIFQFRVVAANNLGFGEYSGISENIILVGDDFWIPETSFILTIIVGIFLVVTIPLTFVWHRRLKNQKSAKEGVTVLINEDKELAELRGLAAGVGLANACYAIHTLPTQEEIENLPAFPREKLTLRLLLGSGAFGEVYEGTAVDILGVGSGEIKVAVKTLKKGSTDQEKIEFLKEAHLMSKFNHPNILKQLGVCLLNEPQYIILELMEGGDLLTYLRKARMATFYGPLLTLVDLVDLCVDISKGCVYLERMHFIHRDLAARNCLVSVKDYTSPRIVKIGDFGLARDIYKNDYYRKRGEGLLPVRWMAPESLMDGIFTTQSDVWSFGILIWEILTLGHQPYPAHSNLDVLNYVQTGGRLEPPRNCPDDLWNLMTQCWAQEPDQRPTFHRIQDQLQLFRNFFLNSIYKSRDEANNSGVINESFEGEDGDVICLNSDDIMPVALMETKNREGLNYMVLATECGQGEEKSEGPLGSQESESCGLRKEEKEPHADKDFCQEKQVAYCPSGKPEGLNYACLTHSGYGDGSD

By IC50 is commonly meant the point on the concentration scale where inhibition reaches its midpoint. Read a low IC50 as greater potency. Consider `Cc1c(Br)c([N+](=O)[O-])nn1[C@H](C)C(=O)Nc1c(C)n(C)n(-c2ccccc2)c1=O`, for which the concentration for half-maximal inhibition (IC50) is > 100000 nM and the inhibition at 10 µM turned out to be 34.1%.

On to `O=C(NCC1Cc2cc(-c3cncnc3)cc(Cl)c2O1)c1cccc(Cn2cccn2)c1` (centres unmarked), for which the IC50 was > 100000 nM and the “Kinase Inhib. 10 uM (%)” value amounted to 30.25%.

`Cc1cc(C)n(-c2cccc(C(=O)NCC3Cc4cc(Cl)cc(-c5cnccn5)c4O3)c2)n1` (centres unmarked): the IC50 was > 100000 nM and the “Kinase Inhib. 10 uM (%)” value worked out at 29.68%.

Consider `COc1ccccc1[C@@H]1C(C#N)=C(N)Oc2n[nH]c(C(F)(F)F)c21`, for which half-maximal inhibition (IC50) was put at 1700 nM and the inhibition at 10 µM is 61.6%.

With `Nc1nc(Nc2ccc(C(=O)N3CCCC4CCCCC43)cc2)cc(Nc2ccc3ncsc3c2)n1` (centres unmarked), the “Kinase Inhib. 5 uM (%)” value stood at 27.92%.

Turning to `COc1ccc(C(NC(=O)c2n[nH]c(-c3ccccc3)c2C)c2ccncc2)cc1` (centres unmarked), the “Kinase Inhib. 5 uM (%)” value was found to be 31.08%.

`O=C(NCC1CCCO1)c1cccc(Nc2nccc(Nc3ccc4ncsc4c3)n2)c1` (centres unmarked): the inhibition at 5 µM is 101%.

For the compound `COc1ccccc1C1C(C#N)=C(N)Oc2[nH]nc(C)c21` (centres unmarked), the “Kinase Inhib. 5 uM (%)” value amounted to 27.58%.

In the case of `O=c1nc2[nH]c3ccc([N+](=O)[O-])cc3nc-2c(=O)[nH]1`, the “Kinase Inhib. 5 uM (%)” value was 26.23%.

As for `Cc1cc(=O)n2nc(CC(=O)c3ccccc3)[nH]c2n1`, the inhibition at 5 µM was 33.2%.

Turning to `O=C(c1ccccc1)c1nc(-c2ccco2)[nH]c1NCc1ccccc1`, the “Kinase Inhib. 5 uM (%)” value turned out to be 25.92%.

For `COc1ccccc1NC(=O)C1=C(C)Nc2ncnn2C1c1ccc[nH]1` (centres unmarked), the “Kinase Inhib. 5 uM (%)” value was determined as 40.40%.

In the case of `CC(C)c1nc(Nc2ccc3ncsc3c2)nc(NC2CCCCC2)n1`, the 50% inhibitory concentration (IC50) was 1500 nM.

Consider `CC(C)c1nc(NCc2ccccc2)nc(Nc2ccc3ncsc3c2)n1`, for which half-maximal inhibition (IC50) required 358 nM.

The compound `CC(C)c1nc(NCC2CCCCC2)nc(Nc2ccc3ncsc3c2)n1` had a concentration for half-maximal inhibition (IC50) of 528 nM.

In turn, `CCOc1nc(Nc2cccc(Cc3nc4ccccc4s3)c2)nc(C(C)C)n1` registered a half-inhibitory concentration (IC50) of 9260 nM.

Consider `CC(C)c1nc(Nc2ccc(N)cc2)nc(Nc2ccc3ncsc3c2)n1`, for which the concentration for half-maximal inhibition (IC50) was 746 nM.

Take `CC(C)c1nc(Nc2cccc(Br)c2)nc(Nc2ccc3ncsc3c2)n1`: it took 86 nM to reach half-maximal inhibition (IC50).

Compound `CC(C)c1nc(Nc2ccc(Br)cc2)nc(Nc2ccc3ncsc3c2)n1` displayed a concentration for half-maximal inhibition (IC50) of 840 nM.

In the case of `CC(C)c1nc(Nc2cccc(Br)c2)nc(Nc2cc(C3CC3)n[nH]2)n1`, it took 38 nM to reach half-maximal inhibition (IC50).

Turning to `CC(C)c1nc(Nc2ccc(Br)cc2)nc(Nc2cc(C3CC3)n[nH]2)n1`, the IC50 is 67 nM.

Take `CC(C)c1nc(Nc2cccc(OC(F)(F)F)c2)nc(Nc2cc(C3CC3)n[nH]2)n1`: inhibition was half-maximal at 40 nM (IC50).

The compound `O=C(c1ccc(Nc2ncc(Br)c(Nc3ccc4ncsc4c3)n2)cc1)N1CCCCC1` showed a 50% inhibitory concentration (IC50) of 620 nM.

As for `Cc1ccc(Cn2c(NCc3nc4ccccc4n3C)nc3ccccc32)cc1` [drawing 218], the inhibition at 10 µM is 20.2%.

Consider `NC(=O)c1c(NC(=O)[C@H]2CC(=O)N(c3ccccc3)C2)sc2c1CCCC2` [drawing 219], for which the midpoint of inhibition, the IC50, lay at 1300 nM and the inhibition at 10 µM was found to be 41.5%.

For the compound `Clc1ccc2nc(NCc3ccccn3)nc(-c3ccccc3)c2c1` [drawing 220], the inhibition at 10 µM amounted to 25%.

As to `NS(=O)(=O)c1ccc(CCNC(=O)c2cc(-c3cccs3)nc3ccccc23)cc1` [drawing 221], the inhibition at 10 µM came out at 21.5%.

Regarding `Cc1[nH]c2nc(NCc3cccc([N+](=O)[O-])c3)nn2c(=O)c1Cc1ccccc1` [drawing 222], the “Kinase Inhib. 10 uM (%)” value was 23.83%.

`COc1ccccc1-c1cc(C(F)F)n2ncc(C(=O)NCc3cccnc3)c2n1` [drawing 224]: the IC50 came out at 4000 nM and the inhibition at 10 µM came to 35%.

For `CCOC(Nc1cc(-c2sccc2-n2c(C)ccc2C)[nH]n1)OCC` [drawing 227], the “Kinase Inhib. 10 uM (%)” value came out at 27.57%.

On to `O=c1cc(Oc2ccccc2)c(-c2nc[nH]n2)nn1-c1ccccc1` [drawing 228], for which the “Kinase Inhib. 10 uM (%)” value is 20.40%.

`O=C(NNc1nc2ccccc2nc1Cc1ccccc1)c1cccc(Cl)c1` [drawing 229]: the inhibition at 10 µM came to 24.3%.

In the case of `O=C1NN=C(c2ccccc2)/C1=C/Nc1ccccc1` [drawing 231], the inhibition at 5 µM stood at 30.6%.

With `COc1ccc(N/C=C2\C(=O)NN=C2c2ccccc2)cc1` [drawing 232], the inhibition at 5 µM is 34.2%.

On to `Cc1ccc(NC=C2C(=O)NN=C2c2ccccc2)cc1` [drawing 233], for which the inhibition at 5 µM was 43.7%.

As for `Cc1cccc(Nc2ccnc(Nc3cccc(C(=O)N4CC=CCC4)c3)n2)c1` [drawing 234], 80 nM corresponded to half-maximal inhibition (IC50) and the inhibition at 5 µM worked out at 94.2%.

Turning to `O=C(NCCc1ccc(F)cc1)c1cccc(Nc2nccc(Nc3ccc4ncsc4c3)n2)c1` [drawing 235], the IC50 was 130 nM and the “Kinase Inhib. 5 uM (%)” value was 100.68%.

In the case of `CCN(CC)CCNC(=O)c1cccc(Nc2nccc(Nc3ccc4ncsc4c3)n2)c1` [drawing 236], the inhibition at 5 µM came out at 102%.

With `Nc1nc(Nc2ccc(C(=O)NCc3ccco3)cc2)cc(Nc2ccc3ncsc3c2)n1` [drawing 238], the half-maximal inhibitory concentration (IC50) came to 3810 nM and the inhibition at 5 µM amounted to 49%.

`O=C(NCc1ccco1)c1cccc(Nc2nccc(Nc3ccc4ncsc4c3)n2)c1` [drawing 239]: the midpoint of inhibition, the IC50, lay at 160 nM and the inhibition at 5 µM is 101%.

As for `COc1cccc(Nc2cc(Nc3cccc(C(=O)N4CCN(C(C)=O)CC4)c3)nc(N)n2)c1` [drawing 240], the inhibition at 5 µM is 22.3%.

For `CC(=O)N[C@@H]1CCN(C(=O)c2cccc(Nc3cc(N(C)c4cccc(C)c4)ncn3)c2)C1` [drawing 241], the inhibition at 5 µM is 29.6%.

On to `Cc1cccc(Nc2nccc(Nc3cccc(C(=O)NCc4ccc(F)cc4)c3)n2)c1` [drawing 242], for which the inhibition at 5 µM stood at 23.7%.

For the compound `CCC(C)(C)NC(=O)c1cccc(Nc2nccc(Nc3ccc4ncsc4c3)n2)c1` [drawing 243], the 50% inhibitory concentration (IC50) was 620 nM and the inhibition at 5 µM came out at 101%.

On to `Cc1cccc(Nc2nccc(Nc3cccc(C(=O)NCCN4CCOCC4)c3)n2)c1` [drawing 244], for which the IC50 came out at 2100 nM and the inhibition at 5 µM is 98.4%.

In the case of `Cc1cccc(Nc2nccc(Nc3cccc(C(=O)Nc4ccc(F)cc4)c3)n2)c1` [drawing 245], the inhibition at 5 µM was found to be 47.3%.

Take `Clc1ccc(CNc2cc(-c3ccccc3)ncn2)cc1` [drawing 246]: the inhibition at 10 µM was 21.2%.

Take `COc1cccc(Nc2nc(N)c(C(=O)c3c(C)[nH]c4ccccc34)s2)c1` [drawing 247]: the inhibition at 10 µM stood at 28.5%.

With `O=C(c1cccc(-c2noc(-c3n[nH]c4c3CCCC4)n2)c1)N1CCCCC1` [drawing 248], inhibition was half-maximal at 4100 nM (IC50) and the inhibition at 10 µM came out at 39.5%.

With `CCN(CCO)c1nc(Nc2ccc(F)cc2)c2cnn(-c3ccccc3)c2n1` [drawing 249], 16800 nM corresponded to half-maximal inhibition (IC50) and the “Kinase Inhib. 10 uM (%)” value turned out to be 38.92%.

Take `COc1ccc(Nc2nc(N(C)CCO)nc3c2cnn3-c2ccccc2)cc1` [drawing 250]: the “Kinase Inhib. 5 uM (%)” value is listed as 41.55%.

`CC(C)(C)c1cc(C(=O)NNc2cccc(Cl)c2)n(Cc2ccccc2)n1` [drawing 252]: the “Kinase Inhib. 10 uM (%)” value is 27.16%.

On to `O=C(NNc1cc(C(F)(F)F)ccc1Cl)c1cccnc1Oc1ccccc1` [drawing 253], for which the IC50 was > 100000 nM and the inhibition at 10 µM was determined as 31.2%.

Source of the values: US9963452B2, “Methods, compounds, and compositions for inhibition of ROS” (AUGUSTA PHARMACEUTICALS INC., priority 2013, dated 2018).
